Experimental data published in the supplement of paper PMC7840683.
± gives the standard deviation of the averaged measurements.

Tested on: HepaRG
Assay: LDH release cytotoxicity, % of total lysis control; higher = more cytotoxic
Details: 48 h
How it was run: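 Percent cytotoxicity was scaled between on-plate vehicle and total lysis controls, then averaged over duplicate wells. The cells were single-lot HepaRG on collagen I-coated 96-well plates, exposed for 48 h to eight-point half-log test chemical series topping at 100 µM in serum-free induction medium with 0.5% DMSO. Total lysis wells got 0.1% Triton X, and LDH in 50 µL spent medium was read as resorufin fluorescence (CytoTox-ONE, Tecan Safire).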

Row | SMILES | LDH release cytotoxicity (0.03162 µM) [%] | LDH release cytotoxicity (0.1 µM) [%] | LDH release cytotoxicity (0.3162278 µM) [%] | LDH release cytotoxicity (1 µM) [%] | LDH release cytotoxicity (3.16228 µM) [%] | LDH release cytotoxicity (10 µM) [%] | LDH release cytotoxicity (31.6228 µM) [%] | LDH release cytotoxicity (100 µM) [%] | LDH release cytotoxicity (0.031623 µM) [%] | LDH release cytotoxicity (0.316228 µM) [%]
1 | O=C(Oc1ccc(Br)cc1)N1CCN2CCC1CC2 | -1.87 ± 0.45 | -3.23 ± 2.2 | -0.984 ± 0.16 | -1.45 ± 0.27 | -1.43 ± 0.56 | -1.29 ± 0.41 | -0.718 ± 0.41 | 0.972 ± 0.95 | – | –
2 | CC(C)(C)c1csc(-c2cc3cc(OCc4ccccc4CC(=O)O)ccc3o2)n1 | – | -2.14 ± 0.54 | – | -2.18 ± 0.68 | -2.37 ± 0.089 | -3.649 ± 0.015 | -2.7 ± 0.72 | 64 ± 7 | 1.06 ± 0.28 | -2.66 ± 0.65
3 | CC(C)(O)c1ccc(CNC(=O)c2cccnc2Oc2ccc(F)cc2)cc1 | -1.22 ± 0.93 | -1.42 ± 0.31 | -0.81 ± 0.042 | -1.975 ± 0.0046 | -0.936 ± 0.39 | -0.88 ± 0.74 | -1.34 ± 0.14 | -1.94 ± 0.87 | – | –
4 | CC(C)c1nnc2ccc(-c3ocnc3-c3cc(F)ccc3F)cn12 | -1.28 ± 0.22 | -1.01 ± 0.88 | -1.08 ± 0.44 | -1.31 ± 0.37 | -2.01 ± 0.34 | -1.36 ± 0.45 | -2.04 ± 0.03 | 5.98 ± 0.59 | – | –
5 | CC(Oc1ccc(CNC(=O)c2cccnc2Oc2ccc3c(c2)OCO3)c(F)c1)C(=O)O (stereo not given) | 0.432 ± 0.73 | -0.868 ± 0.12 | -1.04 ± 0.64 | -1.35 ± 0.25 | -1.24 ± 0.19 | -0.8947 ± 0.0016 | -0.798 ± 0.6 | -0.624 ± 0.43 | – | –
6 | CC1(C)NC(=O)N(c2ccc([N+](=O)[O-])c(C(F)(F)F)c2)C1=O | -1.893 ± 0.013 | -2.02 ± 0.6 | -1.85 ± 0.036 | -2.09 ± 0.12 | -2 ± 0.71 | -1.72 ± 0.061 | -1.66 ± 0.7 | -0.93 ± 0.35 | – | –
7 | Cc1oc2c(NC(=O)c3c(Cl)cccc3Cl)cccc2c1C(C)(C)O | -1.37 ± 0.53 | -0.99 ± 1.4 | -1.56 ± 1.6 | -1.94 ± 1.6 | -2.03 ± 0.99 | -0.5 ± 0.33 | 13.1 ± 1.4 | 33.7 ± 0.42 | – | –
8 | Cc1oc(-c2ccccc2)nc1CCOc1cccc2c1ccn2CCC(=O)O | -0.496 ± 0.49 | -1.56 ± 0.14 | -1.37 ± 1.4 | -1.71 ± 0.068 | -1.03 ± 0.61 | -0.899 ± 0.13 | -0.577 ± 0.44 | 45.3 ± 5.2 | – | –
9 | Cc1cc(NC(=O)C(=O)O)cc(C)c1Oc1ccc(O)c2c1CCC2 | 0.0573 ± 0.64 | -0.831 ± 0.11 | -0.658 ± 0.17 | -1.32 ± 0.24 | -1.06 ± 0.025 | -0.633 ± 0.77 | 1.17 ± 2.3 | 0.214 ± 0.025 | – | –
10 | C=C(C)CN(CC)c1c([N+](=O)[O-])cc(C(F)(F)F)cc1[N+](=O)[O-] | 0.288 ± 0.69 | -0.786 ± 0.58 | -0.775 ± 0.099 | -1.3 ± 0.21 | -0.72 ± 0.57 | -0.92 ± 0.68 | -0.439 ± 0.064 | 0.333 ± 0.038 | – | –
11 | CCN(CC)CCNc1ccc(CNC=O)c2sc3ccc(OC)cc3c(=O)c12 | -0.844 ± 1.3 | -1.66 ± 0.14 | -0.986 ± 0.35 | -1.41 ± 0.78 | 1.37 ± 0.86 | 2.31 ± 0.54 | 5.144 ± 0.031 | 81.1 ± 6.4 | – | –
12 | CCN1CCC2(CC1)COc1cc3c(cc12)N(C(=O)c1ccc(-c2ccc(-c4nnc(C)o4)cc2C)cc1)CC3 | -2.84 ± 1.3 | -2.94 ± 0.81 | -1.93 ± 1.5 | -3.08 ± 0.76 | -3.21 ± 1.3 | -2.54 ± 0.92 | -2.8 ± 0.8 | -0.687 ± 1.4 | – | –
13 | CNC(=O)C1OC(n2cnc3c(NCc4cc(Cl)ccc4OCc4cc(C)no4)ncnc32)C(O)C1N (stereo not given) | -1.47 ± 0.23 | -1.47 ± 1.1 | -1.92 ± 0.35 | -1.97 ± 0.043 | -1.57 ± 0.1 | -1.54 ± 0.46 | -0.977 ± 0.33 | 0.0796 ± 0.85 | – | –
14 | CNC1CCC(c2ccc(Cl)c(Cl)c2)c2ccc(S(N)(=O)=O)cc21 (stereo not given) | -1.64 ± 0.43 | -2.15 ± 0.55 | -1.81 ± 0.055 | -1.88 ± 0.57 | -1.12 ± 0.32 | -0.337 ± 0.06 | 15 ± 0.65 | 81.4 ± 3.4 | – | –
15 | CNCc1cc(F)ccc1Oc1ccc(Cl)c(Cl)c1 | -11 ± 1.1 | -10.04 ± 0.031 | -10.6 ± 1.2 | -10.4 ± 0.19 | -11.2 ± 0.63 | -10 ± 1.1 | -8.03 ± 1.4 | 75.6 ± 5.6 | – | –
